Common to all, as to experiment: DTP human tumour cell line panel, 48 h
In assay [1] the test system is HCT-116 colon.
Assay [2] relates to SN12C renal.
Assay [3] deals with COLO 205 colon.
Assay [4] deals with T-47D breast.
In assay [5] the test system is NCI-H226 lung.
The subject of assay [6] is SF-295 CNS.
Assay [7] deals with 786-0 renal.
Assay [8] has as its system SK-MEL-2 melanoma.
Assay [9] deals with UACC-257 melanoma.
The test system of assay [10] is MCF7 breast.

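Values below derive from 48-hour exposures of cells grown in 96-well plates, with endpoints linearly interpolated between the two concentrations bracketing the appropriate inhibition level. TGI: total growth inhibition.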

`COc1ccc(C(=O)NCCN(C)C)c2nc3ccccc3cc12`: the TGI in assay [1] turned out to be 5.25 µM; in assay [2] it was 3.28 µM; in [3], 2.57 µM; in assay [4] it was 12.6 µM; in assay [5], 3.26 µM; in assay [6], 6.34 µM. The TGI came to 12.1 µM in [7], 7.46 µM in [8], 4.02 µM in assay [9] and 3.99 µM in assay [10].

With `O=c1onc2n1-c1cc(Cl)ccc1C(=S)N1CSCC21` (stereo not given), the TGI in [1], in [2], in assay [3], in assay [4], in [5] and in assay [6] was greater than 100 µM in each case. For the same compound, the total growth inhibition concentration (TGI) in assay [7], in assay [8], in assay [9] and in assay [10] was greater than 100 µM in each case.

For `CCOC(=O)CC/C(=N/Nc1ccc(Cl)cc1[N+](=O)[O-])C(=O)OCC`, the TGI in assay [1], in assay [2], in assay [3], in assay [4], in assay [5] and in assay [6] was greater than 100 µM throughout. For the same compound, the TGI in assay [7], in [8], in [9] and in assay [10] was greater than 100 µM each time.

On to `CO/N=C(/C(=O)OC)c1ccccc1COc1ccccc1C(F)(F)F`, for which the TGI in assay [1], in assay [2], in assay [3], in [4], in [5] and in assay [6] was greater than 100 µM each time. For the same compound, the concentration for total growth inhibition (TGI) was greater than 100 µM in assay [7], 73.2 µM in assay [8], 88.7 µM in assay [9] and greater than 100 µM in assay [10].

Turning to `O=c1c2c(no[n+]2[O-])c2ccccc2n1-c1ccccc1`, the TGI is 6.73 µM in assay [1]; 17.2 µM in assay [2]; 20.3 µM in [3]; 23.6 µM in assay [4]; 30.7 µM in [5]; 23.5 µM in assay [6]. The TGI in assay [7] is 9.97 µM; in assay [8] it was 18.8 µM; in assay [9], 22 µM; in [10], 15.6 µM.

Take `O=C(O)c1cccc(S(=O)(=O)NN2C(=O)CSC2c2ccc(Cl)cc2Cl)c1` (stereo not given): the TGI is 83.1 µM in assay [1]; greater than 100 µM in assay [2]; greater than 100 µM in [3]; greater than 100 µM in [4]; greater than 100 µM in assay [5]; greater than 100 µM in assay [6]. The TGI in assay [7] is 29.4 µM; in assay [8], greater than 100 µM; in assay [9], greater than 100 µM; in [10], greater than 100 µM.

For `c1ccc(C2=NOC(c3ccccc3)N2C23CC4CC(CC(C4)C2)C3)cc1` (stereo not given), the total growth inhibition concentration (TGI) in [1], in [2], in assay [3], in assay [4], in [5] and in assay [6] was greater than 10 µM throughout. Further, the TGI in [7], in [8], in assay [9] and in assay [10] was greater than 10 µM throughout.

Consider `CCN(C(=O)N[C@@H](C)C(=O)N[C@@H](Cc1ccccc1)C(=O)OC)c1ccccc1`, for which the TGI in [1] was greater than 100 µM; in [2], 73.2 µM; in assay [3] it was greater than 100 µM; in assay [4] it was greater than 100 µM; in [5], greater than 100 µM; in assay [6], greater than 100 µM. Moreover, the TGI in assay [7], in assay [8], in [9] and in [10] was greater than 100 µM in each case.

For the compound `CC(C)Oc1cccc(N2C(=NCc3c[nH]c4ccccc34)Nc3ccncc3S2(=O)=O)c1`, the TGI in [1] was greater than 100 µM; in assay [2], greater than 100 µM; in assay [3], 29.4 µM; in [4] it was 85.2 µM; in assay [5], greater than 100 µM; in assay [6], greater than 100 µM. The TGI was greater than 100 µM in assay [7], 51.3 µM in [8], greater than 100 µM in [9] and greater than 100 µM in assay [10].

Consider `C=C(C)[C@H]1C2=CC(C(=O)OC)=C(C[C@H](C(=C)C)[C@@H](O)[C@@H](O)C3=C[C@H]1OC3=O)O2`, for which the TGI in [1], in assay [2], in [3], in assay [4], in assay [5] and in assay [6] was greater than 100 µM in each case. The total growth inhibition concentration (TGI) in assay [7], in assay [8], in assay [9] and in assay [10] was greater than 100 µM in each case.

Regarding `OCCCc1ccc2c(c1)[C@H](CO)[C@@H](c1ccc(O)cc1)O2`, the concentration for total growth inhibition (TGI) in [1], in assay [2], in assay [3], in assay [4], in assay [5] and in assay [6] was greater than 100 µM throughout. The TGI in assay [7], in assay [8], in assay [9] and in assay [10] was greater than 100 µM each time.

With `O=C(O)C(O)C(O)C(O)C(O)CO` (stereo not given), the total growth inhibition concentration (TGI) in [1], in [2], in [3], in assay [4], in [5] and in [6] was greater than 100 µM in each case. In addition, the concentration for total growth inhibition (TGI) in [7], in assay [8], in [9] and in [10] was greater than 100 µM in each case.

As for `Cc1ccc(/C=C2/N=C(N/N=C\C(O)C(O)C(O)C(O)CO)NC2=O)cc1` (stereo not given), the TGI in [1], in assay [2], in assay [3], in assay [4], in assay [5] and in assay [6] was greater than 100 µM each time. For the same compound, the TGI in assay [7], in assay [8], in [9] and in [10] was greater than 100 µM in each case.

With `CCOC(=O)/C(C(C)=O)=C(\OC(C)=O)c1ccncc1C(=O)O`, the TGI in assay [1], in assay [2], in assay [3], in assay [4], in assay [5] and in assay [6] was greater than 100 µM throughout. Also, the concentration for total growth inhibition (TGI) in assay [7], in assay [8], in assay [9] and in assay [10] was greater than 100 µM in each case.

In general, TGI refers to the concentration giving total growth inhibition. A lower TGI goes with more potent growth arrest.

The values above are taken from PubChem BioAssay (NCI).
